Data reported in the RepoRT retention time repository.

Assay: RP, Waters ACQUITY UPLC BEH C18, 50 × 2.1 mm, 1.7 µm, 35 °C, 0.25 mL/min, estimated dead time 0.44 min; A: water + 0.1% acetic acid, pH 3; B: acetonitrile; gradient (min/%B) 0/5 1.12/5 6.41/99.5 10.01/99.5
Settings: stereoisomer not certain

SMILES | LC retention time
O=C(O)CCCCCCCC(=O)O [nonanedioic acid] | 5 min
CCCCCCCCCCCCCCCCC(=O)O [heptadecanoic acid] | 15 min
CCCCCCCCCC(=O)O [decanoic acid] | 10 min
NC(Cc1ccccc1)C(=O)NC(Cc1ccccc1)C(=O)O (stereo not given) [Phe-phe] | 4 min
NC(Cc1c[nH]c2ccccc12)C(=O)O (stereo not given) [tryptophan] | 1 min
O=S(=O)([O-])Oc1c[nH]c2ccccc12.[K+] [indoxyl sulfuric acid] | 2 min
COCC(NC(C)=O)C(=O)NCc1ccccc1 (stereo not given) [lacosamide] | 4 min
NC(=O)CCC(NC(=O)Cc1ccccc1)C(=O)O (stereo not given) [phenylacetylglutamine] | 2 min
O=C(O)CCCCCCCCCCCCCCC(=O)O [hexadecanedioic acid] | 9.37 min
CCCCCCCCCCCCCCCCCC(=O)OCC(O)COP(=O)([O-])OCC[N+](C)(C)C (stereo not given) [lysoPC(18:0/0:0)] | 11.5 min
